Reference: patent publication US20250361268A1, “NOVEL ANTI-INFLAMMATORY PEPTIDE AND USE THEREOF” (NOVACELL TECHNOLOGY INC., priority 2022, published 2025)
Peptide text beside a SMILES is read from it.

Experiments:
[1] = target: T1, FPR2 (Homo sapiens, UniProt P25090); assay: Change in calcium activity by peptide (Fura-2) in RBL cells overexpressing FPR2; format: cell-based; details: calcium activity (Fura-2), graded per Table 3, read-out: EC50 for [Ca^2+] FPR2
T1 construct: expressed in transfected cells; host or cells: RBL cells (RBL-FPR2)
T1 sequence (P25090 1-351): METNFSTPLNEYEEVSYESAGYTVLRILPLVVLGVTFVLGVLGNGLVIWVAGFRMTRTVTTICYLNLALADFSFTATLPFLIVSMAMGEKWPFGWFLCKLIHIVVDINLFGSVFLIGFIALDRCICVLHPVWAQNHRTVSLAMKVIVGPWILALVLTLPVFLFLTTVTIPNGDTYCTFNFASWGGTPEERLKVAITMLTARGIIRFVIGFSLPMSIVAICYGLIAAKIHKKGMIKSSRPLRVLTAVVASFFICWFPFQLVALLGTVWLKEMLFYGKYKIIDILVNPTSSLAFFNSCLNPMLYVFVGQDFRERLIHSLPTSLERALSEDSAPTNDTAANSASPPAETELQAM
How it was run: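 Rat basophilic leukemia cells overexpressing FPR2 loaded with Fura-2 (37 °C 1 h, then RT 30 min dark); peptides (0.5 mM stocks in water or 50% DMSO) diluted in HBSS + 20 mM HEPES and added on a plate reader, intracellular Ca2+ change recorded.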

[2] = target: T2, FPR1 (Homo sapiens, UniProt P21462); assay: Change in calcium activity by peptide, FPR1 activation effect; format: cell-based; details: calcium activity (Fura-2), graded per Table 3, read-out: EC50 for [Ca^2+] FPR1
T2 sequence (P21462 1-350): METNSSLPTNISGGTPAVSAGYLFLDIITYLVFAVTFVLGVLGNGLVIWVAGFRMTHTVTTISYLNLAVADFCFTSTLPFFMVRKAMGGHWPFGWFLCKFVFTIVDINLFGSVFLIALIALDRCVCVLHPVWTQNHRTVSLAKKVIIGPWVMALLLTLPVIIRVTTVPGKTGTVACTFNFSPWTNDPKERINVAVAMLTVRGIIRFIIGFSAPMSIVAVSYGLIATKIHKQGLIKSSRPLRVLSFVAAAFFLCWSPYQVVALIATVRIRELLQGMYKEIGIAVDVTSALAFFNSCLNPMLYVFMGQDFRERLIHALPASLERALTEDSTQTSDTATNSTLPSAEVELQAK
How it was run: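 Cells plated at 3×10^5 per well the day before were loaded with Fura-2 for 1 h at 37 °C, then kept 30 min in the dark at room temperature. Peptide-evoked calcium changes were recorded on a FlexStation 3.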

[3] = test system: RAW264.7 cell line; assay: Cytokine inhibition ability: LPS-induced cytokine gene expression in RAW264.7 macrophages; format: cell-based, mouse; details: grade of reduction rate of gene expression, peptide 100 nM, LPS 200 ng/mL, 6 hours
Procedure: The present inventors observed the cytokine inhibition ability of the immunomodulatory peptide candidates prepared according to one example of the present invention. Specifically, to confirm whether the peptides reduce inflammatory responses in cells, changes in cytokine gene expression in cells upon inflammation was measured.
The present inventors used a RAW264.7 cell line, that is, mouse macrophages, and used lipopolysaccharide (LPS; Sigma-Aldrich, #L2630), which is the main component of a gram-negative bacterial cell wall, as a material causing an inflammatory response. A peptide that had been dissolved in water at 100 μM was prepared.
In the present experiment, the cells were cultured in a DMEM (Lonza, #BE12-604F) containing 10% FBS and 1% penicillin-streptomycin under conditions of 37° C. and 5% CO2.
The cells were plated in a 24-well plate (Costar, #3603) at a density of 2.5×10^5 cells/well. After 24 hours, the prepared cells were treated with the peptide at 100 nM. After incubation at 37° C. for 30 minutes, to induce inflammation, 200 ng/mL of LPS was treated. After incubation at 37° C. for 6 hours, the cells in a medium-free state were treated with TRIzol™ (Invitrogen, #15596018) to lyse the cells. Through the given experimental method, RNA was obtained, cDNA was produced using a reverse transcriptase (Promega, #M1705). Afterward, a cytokine expression level was measured using SYBR Green (Enzynomics, RT530) and mouse primers of each inflammatory cytokine gene (TNFα, IL-6, and IL-1β).

EC50 [1]	EC50 [2]	SMILES	Cytokine inhibition ability IL-1β [3]	Cytokine inhibition ability IL-6 [3]	Cytokine inhibition ability TNFα [3]
< 10 nM	> 10000 nM	CCCC(=O)N[C@@H](CCSC)C(=O)N[C@@H](CCCCN)C(=O)N[C@@H](Cc1ccc(O)cc1)C(=O)N[C@@H](CCCCN)C(=O)N[C@H](C(=O)N[C@H](CCSC)C(N)=O)C(C)C [Peptide 19] (HELM PEPTIDE1{[CCCC(=O)[*:2]].M.K.Y.K.V.[dM].[am]}$$$$V2.0)	A (81%-100%)	B (61%-80%)	B (61%-80%)
< 10 nM	> 10000 nM	CSCC[C@H](NC(=O)[C@H](CCCNC(=N)N)NC(C)=O)C(=O)N[C@@H](CCCNC(=N)N)C(=O)N[C@@H](Cc1ccc(O)cc1)C(=O)N[C@@H](CCCCN)C(=O)N[C@H](C(=O)N[C@H](CCSC)C(N)=O)C(C)C [Peptide 6] (HELM PEPTIDE1{[ac].R.M.R.Y.K.V.[dM].[am]}$$$$V2.0)	A (81%-100%)	C (41%-60%)	A (81%-100%)
< 10 nM	1000 to 10000 nM	CCCC(=O)N[C@@H](CCSC)C(=O)N[C@@H](CCCCN)C(=O)N[C@@H](Cc1ccc(O)cc1)C(=O)N[C@@H](Cc1c[nH]c2ccccc12)C(=O)N1CCC[C@H]1C(=O)N[C@H](CCSC)C(N)=O [Peptide 115] (HELM PEPTIDE1{[CCCC(=O)[*:2]].M.K.Y.W.P.[dM].[am]}$$$$V2.0)	B (61%-80%)	B (61%-80%)	C (41%-60%)
11 to 100 nM	> 10000 nM	CCCCCCCC(=O)N[C@@H](CCCCN)C(=O)N[C@@H](CCSC)C(=O)N[C@@H](CCCCN)C(=O)N[C@@H](Cc1ccc(O)cc1)C(=O)N[C@@H](CCCCN)C(=O)N1CCC[C@H]1C(=O)N[C@H](CCSC)C(N)=O [Peptide 69] (HELM PEPTIDE1{[CCCCCCCC(=O)[*:2]].K.M.K.Y.K.P.[dM].[am]}$$$$V2.0)	A (81%-100%)	C (41%-60%)	B (61%-80%)
11 to 100 nM	> 10000 nM	CCCCCCCC(=O)N[C@@H](CCCNC(=N)N)C(=O)N[C@@H](CCSC)C(=O)N[C@@H](CCCNC(=N)N)C(=O)N[C@@H](Cc1ccc(O)cc1)C(=O)N[C@@H](Cc1c[nH]c2ccccc12)C(=O)N[C@@H](Cc1ccc(O)cc1)C(=O)N[C@H](CCSC)C(N)=O [Peptide 84] (HELM PEPTIDE1{[CCCCCCCC(=O)[*:2]].R.M.R.Y.W.Y.[dM].[am]}$$$$V2.0)	B (61%-80%)	E (0%-20%)	A (81%-100%)
< 10 nM	> 10000 nM	CSCC[C@H](N)C(=O)N[C@@H](CCCCN)C(=O)N[C@@H](Cc1ccc(O)cc1)C(=O)N[C@@H](CCCCN)C(=O)N[C@H](C(=O)N[C@H](CCSC)C(N)=O)C(C)C [Peptide 17] (HELM PEPTIDE1{M.K.Y.K.V.[dM].[am]}$$$$V2.0)	B (61%-80%)	D (21%-40%)	B (61%-80%)
11 to 100 nM	> 10000 nM	CCCCCCCC(=O)N[C@@H](CCSC)C(=O)N[C@@H](CCCCN)C(=O)N[C@@H](Cc1ccc(O)cc1)C(=O)N[C@@H](CCCCN)C(=O)N1CCC[C@H]1C(=O)N[C@H](CCSC)C(N)=O [Peptide 73] (HELM PEPTIDE1{[CCCCCCCC(=O)[*:2]].M.K.Y.K.P.[dM].[am]}$$$$V2.0)	B (61%-80%)	D (21%-40%)	B (61%-80%)
< 10 nM	> 10000 nM	CSCC[C@H](NC(C)=O)C(=O)N[C@@H](CCCNC(=N)N)C(=O)N[C@@H](Cc1ccc(O)cc1)C(=O)N[C@@H](CCCCN)C(=O)N1CCC[C@H]1C(=O)N[C@H](CCSC)C(N)=O [Peptide 55] (HELM PEPTIDE1{[ac].M.R.Y.K.P.[dM].[am]}$$$$V2.0)	A (81%-100%)	B (61%-80%)	B (61%-80%)
11 to 100 nM	1000 to 10000 nM	CCCCCCCC(=O)N[C@@H](CCSC)C(=O)N[C@@H](CCCCN)C(=O)N[C@@H](Cc1ccc(O)cc1)C(=O)N[C@@H](Cc1c[nH]c2ccccc12)C(=O)N1CCC[C@H]1C(=O)N[C@H](CCSC)C(N)=O [Peptide 116] (HELM PEPTIDE1{[CCCCCCCC(=O)[*:2]].M.K.Y.W.P.[dM].[am]}$$$$V2.0)	B (61%-80%)	B (61%-80%)	B (61%-80%)
11 to 100 nM	> 10000 nM	CSCC[C@H](NC(=O)[C@H](CCCNC(=N)N)NC(C)=O)C(=O)N[C@@H](CCCNC(=N)N)C(=O)N[C@@H](Cc1ccc(O)cc1)C(=O)N[C@@H](CCCCN)C(=O)N[C@@H](Cc1ccc(O)cc1)C(=O)N[C@H](CCSC)C(N)=O [Peptide 39] (HELM PEPTIDE1{[ac].R.M.R.Y.K.Y.[dM].[am]}$$$$V2.0)	B (61%-80%)	D (21%-40%)	B (61%-80%)
< 10 nM	> 10000 nM	CSCC[C@H](N)C(=O)N[C@@H](CCCCN)C(=O)N[C@@H](Cc1ccc(O)cc1)C(=O)N[C@@H](CCCCN)C(=O)N1CCC[C@H]1C(=O)N[C@H](CCSC)C(N)=O [Peptide 70] (HELM PEPTIDE1{M.K.Y.K.P.[dM].[am]}$$$$V2.0)	A (81%-100%)	D (21%-40%)	C (41%-60%)
< 10 nM	1000 to 10000 nM	CSCC[C@H](NC(C)=O)C(=O)N[C@@H](CCCCN)C(=O)N[C@@H](Cc1ccc(O)cc1)C(=O)N[C@@H](Cc1c[nH]c2ccccc12)C(=O)N1CCC[C@H]1C(=O)N[C@H](CCSC)C(N)=O [Peptide 114] (HELM PEPTIDE1{[ac].M.K.Y.W.P.[dM].[am]}$$$$V2.0)	B (61%-80%)	E (0%-20%)	A (81%-100%)
11 to 100 nM	> 10000 nM	CSCC[C@H](NC(C)=O)C(=O)N[C@@H](CCCCN)C(=O)N[C@@H](Cc1ccc(O)cc1)C(=O)N[C@@H](CCCCN)C(=O)N1CCC[C@H]1C(=O)N[C@H](CCSC)C(N)=O [Peptide 71] (HELM PEPTIDE1{[ac].M.K.Y.K.P.[dM].[am]}$$$$V2.0)	A (81%-100%)	C (41%-60%)	C (41%-60%)
< 10 nM	> 10000 nM	CSCC[C@H](NC(=O)[C@@H](N)CCCNC(=N)N)C(=O)N[C@@H](CCCNC(=N)N)C(=O)N[C@@H](Cc1ccc(O)cc1)C(=O)N[C@@H](CCCCN)C(=O)N[C@@H](Cc1ccc(O)cc1)C(=O)N[C@H](CCSC)C(N)=O [Peptide 38] (HELM PEPTIDE1{R.M.R.Y.K.Y.[dM].[am]}$$$$V2.0)	A (81%-100%)	C (41%-60%)	B (61%-80%)
11 to 100 nM	> 10000 nM	CCCCCCCC(=O)N[C@@H](CCSC)C(=O)N[C@@H](CCCCN)C(=O)N[C@@H](Cc1ccc(O)cc1)C(=O)N[C@@H](CCCCN)C(=O)N[C@H](C(=O)N[C@H](CCSC)C(N)=O)C(C)C [Peptide 20] (HELM PEPTIDE1{[CCCCCCCC(=O)[*:2]].M.K.Y.K.V.[dM].[am]}$$$$V2.0)	B (61%-80%)	B (61%-80%)	B (61%-80%)
